Key:
[1] = Cytotoxicity against human MT2 cells assessed as cell viability measured after 4 days by XTT assay; type: toxicity, cell-based; conditions: time 4 day
[2] = Displacement of [3H](S)-2-(tert-butoxy)-2-(2-methyl-4-(p-tolyl)quinolin-3-yl)acetic acid from LEDGF-binding site of recombinant T124/T125 polymorphic HIV1 integrase by LIDIA assay; set-up: species or system Human immunodeficiency virus 1
[3] = molecular target: T1, Solute carrier organic anion transporter family member 1B1 (Homo sapiens, UniProt Q9Y6L6); experiment: Inhibition of OATP1B1 (unknown origin); type: ADME
T1 sequence (Q9Y6L6 whole entry): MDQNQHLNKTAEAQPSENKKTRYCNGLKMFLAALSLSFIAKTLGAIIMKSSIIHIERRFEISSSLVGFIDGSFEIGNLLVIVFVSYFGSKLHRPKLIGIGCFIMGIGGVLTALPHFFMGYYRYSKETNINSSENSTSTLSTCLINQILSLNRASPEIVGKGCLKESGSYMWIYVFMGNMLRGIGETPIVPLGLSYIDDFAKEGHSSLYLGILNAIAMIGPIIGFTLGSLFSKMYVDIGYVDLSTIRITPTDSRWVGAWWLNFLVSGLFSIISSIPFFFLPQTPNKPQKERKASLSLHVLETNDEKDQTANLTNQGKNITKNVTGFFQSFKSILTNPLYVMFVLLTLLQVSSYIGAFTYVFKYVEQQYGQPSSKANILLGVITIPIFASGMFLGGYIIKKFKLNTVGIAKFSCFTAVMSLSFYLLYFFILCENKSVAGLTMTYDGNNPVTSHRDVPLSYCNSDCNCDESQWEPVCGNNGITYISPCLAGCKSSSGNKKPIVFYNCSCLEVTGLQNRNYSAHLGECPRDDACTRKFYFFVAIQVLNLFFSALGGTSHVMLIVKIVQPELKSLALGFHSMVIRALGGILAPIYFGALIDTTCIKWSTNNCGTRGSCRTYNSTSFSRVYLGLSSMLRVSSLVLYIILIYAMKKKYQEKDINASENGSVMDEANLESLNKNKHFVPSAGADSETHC

[4] = system: Human immunodeficiency virus 1; experiment: Antiviral activity against recombinant HIV1 NLRep-Rluc harbouring polymorphic T124/T125 integrase infected in human MT-2 cells assessed as inhibition of virus growth in presence of fetal bovine serum by measuring luciferase activity after 5 days; type: functional, organism-based, MT2
[5] = Metabolic stability in human liver microsome assessed half life at 0.5 uM by LC-MS/MS analysis; type: ADME; conditions: liver microsomes
[6] = Stability in human liver microsome assessed as half life; type: ADME; conditions: liver microsomes
[7] = Clearance in Sprague-Dawley rat at 1 mg/kg, iv by LC-MS/MS analysis; type: ADME, organism-based; conditions: in vivo
[8] = system: Human immunodeficiency virus 1; experiment: Antiviral activity against recombinant HIV1 NLRep-Rluc harbouring polymorphic NA infected in human MT-2 cells assessed as inhibition of virus growth in presence of fetal bovine serum by measuring luciferase activity after 5 days; type: functional, organism-based; conditions: Human immunodeficiency virus 1, NLRep, MT2, 120 h
[9] = system: Human immunodeficiency virus 1; experiment: Antiviral activity against recombinant HIV1 NLRep-Rluc harbouring polymorphic TA infected in human MT-2 cells assessed as inhibition of virus growth in presence of fetal bovine serum by measuring luciferase activity after 5 days; type: functional, organism-based; conditions: Human immunodeficiency virus 1, NLRep, MT2, 120 h
[10] = Metabolic stability in rat liver microsome assessed half life at 0.5 uM by LC-MS/MS analysis; type: ADME; conditions: liver microsomes
[11] = system: Human immunodeficiency virus 1; experiment: Antiviral activity against recombinant HIV1 NLRep-Rluc harbouring polymorphic NT infected in human MT-2 cells assessed as inhibition of virus growth in presence of fetal bovine serum by measuring luciferase activity after 5 days; type: functional, organism-based; conditions: Human immunodeficiency virus 1, NLRep, MT2, 120 h
[12] = system: Human immunodeficiency virus 1; experiment: Antiviral activity against recombinant HIV1 NLRep-Rluc harbouring polymorphic AA infected in human MT-2 cells assessed as inhibition of virus growth in presence of fetal bovine serum by measuring luciferase activity after 5 days; type: functional, organism-based; conditions: Human immunodeficiency virus 1, NLRep, MT2, 120 h
[13] = system: Human immunodeficiency virus 1; experiment: Antiviral activity against recombinant HIV1 A128T-resitant mutant […] infected in human MT-2 cells assessed as inhibition of virus growth in presence of fetal bovine serum by measuring luciferase activity after 5 days; type: functional, organism-based; conditions: Human immunodeficiency virus 1, MT2, 120 h
[14] = system: Human immunodeficiency virus 1; experiment: Antiviral activity against recombinant HIV1 NLRep-Rluc harbouring polymorphic AT infected in human MT-2 cells assessed as inhibition of virus growth in presence of fetal bovine serum by measuring luciferase activity after 5 days; type: functional, organism-based; conditions: Human immunodeficiency virus 1, NLRep, MT2, 120 h
[15] = system: Human immunodeficiency virus 1; experiment: Anti retroviral activity against HIV-1 NL4-3 harboring at AA polymorph infected in human MT4 cells by CellTitre-Glo luminescent reagent based assay; type: functional, organism-based; conditions: Human immunodeficiency virus 1, NL4-3, MT4
[16] = system: Human immunodeficiency virus 1; experiment: Anti retroviral activity against HIV-1 NL4-3 harboring at TT polymorph infected in human MT4 cells by CellTitre-Glo luminescent reagent based assay; type: functional, organism-based; conditions: Human immunodeficiency virus 1, NL4-3, MT4
[17] = system: Human immunodeficiency virus 1; experiment: Anti retroviral activity against HIV-1 NL4-3 harboring at TA polymorph infected in human MT4 cells by CellTitre-Glo luminescent reagent based assay; type: functional, organism-based; conditions: Human immunodeficiency virus 1, NL4-3, MT4
[18] = system: Human immunodeficiency virus 1; experiment: Anti retroviral activity against HIV-1 NL4-3 harboring at NA polymorph infected in human MT4 cells by CellTitre-Glo luminescent reagent based assay; type: functional, organism-based; conditions: Human immunodeficiency virus 1, NL4-3, MT4
[19] = system: Human immunodeficiency virus 1; experiment: Anti retroviral activity against HIV-1 NL4-3 harboring at NT polymorph infected in human MT4 cells by CellTitre-Glo luminescent reagent based assay; type: functional, organism-based; conditions: Human immunodeficiency virus 1, NL4-3, MT4
[20] = system: Human immunodeficiency virus 1; experiment: Anti retroviral activity against HIV-1 NL4-3 harboring at AT polymorph infected in human MT4 cells by CellTitre-Glo luminescent reagent based assay; type: functional, organism-based; conditions: Human immunodeficiency virus 1, NL4-3, MT4
[21] = Human immunodeficiency virus 1, NLRep, MT2, 120 h

## Cc1nc(C)c([C@H](OC(C)(C)C)C(=O)O)c(N2CCC(C)(C)CC2)c1-c1ccc(OCCc2ccc(C#N)cc2)cc1
[1]
  CC50 at 96 h: ≥ 33.5 µM
[2]
  IC50: 0.0133 µM
[3]
  IC50: 0.1 µM
[4]; [21]
  EC50: 0.0015 µM

## Cc1nc(C)c([C@H](OC(C)(C)C)C(=O)O)c(N2CCC(C)(C)CC2)c1-c1ccc(OC2COCC2c2ccc(F)cc2)cc1 (stereo in doubt; 40b)
[5]
  half-life at 0.5 µM: 47 min
[6]
  half-life: 47 min
[7]
  clearance: 23.4 mL/min/kg
[8]
  EC50: 0.0037 µM
[9]
  EC50: 0.00092 µM
[10]
  half-life at 0.5 µM: > 120 min
[11]
  EC50: 0.00053 µM
[2]
  IC50: 0.0079 µM
[12]
  EC50: 0.0017 µM
[13]
  EC50: > 0.5 µM
[4]; mt2
  EC50: 0.0006 µM
[14]
  EC50: 0.0013 µM

## Cc1nc2ccccc2c(-c2ccc3c4c(ccnc24)CCO3)c1[C@H](OC(C)(C)C)C(=O)O [BI-224436]
[15]
  EC50: 0.032 µM
[16]
  EC50: 0.032 µM
[8]
  EC50: 0.0491 µM
[9]
  EC50: 0.0495 µM
[17]
  EC50: 0.032 µM
[11]
  EC50: 0.0563 µM
[18]
  EC50: 0.032 µM
[19]
  EC50: 0.032 µM
[12]
  EC50: 0.0281 µM
[13]
  EC50: > 0.5 µM
[4]; [21]
  EC50: 0.049 µM
[14]
  EC50: 0.0487 µM
[20]
  EC50: 0.032 µM
